# ChEMBL document CHEMBL5126515, “Progress of thrombus formation and research on the structure-activity relationship for antithrombotic drugs” (Eur J Med Chem, 2022)
# Tests used:
# [1] = molecular target: P2Y purinoceptor 1 (Homo sapiens, UniProt P47900); test: Antagonist activity at P2Y1 receptor (unknown origin); type: functional
# [2] = molecular target: Coagulation factor X (Homo sapiens, UniProt P00742); test: Binding affinity to FXa (unknown origin)
# [3] = system: Plasma; test: Anticoagulant activity in rabbit plasma assessed as thrombin time; type: functional, Oryctolagus cuniculus
# [4] = system: Plasma; test: Anticoagulant activity in rabbit plasma assessed as activated partial thromboplastin time; type: functional, Oryctolagus cuniculus
# [5] = system: Plasma; test: Anticoagulant activity in rabbit plasma assessed as prothrombin time; type: functional, Oryctolagus cuniculus
# [6] = Antiplatelet activity in platelet (unknown origin) assessed as inhibition of ADP-induced platelet aggregation relative to control; type: functional, cell-based; details: for IC50: platelet
# [7] = Antiplatelet aggregation activity in rabbit platelet assessed as reduction in ADP-induced platelet aggregation; type: functional, cell-based; details: Oryctolagus cuniculus
# [8] = molecular target: Coagulation factor X (Mus musculus, UniProt O88947); test: Inhibition of mouse FXa
# [9] = system: Plasma; test: Anticoagulant activity in mouse plasma assessed inhibition of thrombin-induced platelet aggregation; type: functional, cell-free
# [10] = Antiplatelet activity in human platelet; type: functional, cell-based
# [11] = system: Plasma; test: Antithrombotic activity in rat plasma; type: functional
# [12] = system: Plasma; test: Antiplatelet activity in rabbit plasma assessed as inhibition of arachidonic acid induced platelet aggregation; type: functional, cell-free; details: Oryctolagus cuniculus
# [13] = species: Rattus norvegicus; test: Antiplatelet aggregration activity in arteriovenous bypass thrombosis rat model assessed as aggregation inhibition rate relative to control; type: functional
# [14] = system: Platelet; test: Potency index, ratio of IC50 for MCI-154 to IC50 for test compound against antiplatelet activity in human platelet; type: functional
# [15] = Anticoagulant activity in human platelet assessed as reduction in thrombin-induced platelet aggregation in presence of ADP by measuring turbidity; type: functional, cell-based
# [16] = system: Plasma; test: Antiplatelet activity in plasma (unknown origin) assessed as reduction of thrombin-induced platelet aggregation by aggregometer; type: functional, cell-free; details: Homo sapiens
# [17] = system: Plasma; test: Antiplatelet activity in plasma (unknown origin) assessed as reduction of ADP-induced platelet aggregation by aggregometer; type: functional, cell-free; details: Homo sapiens
# [18] = system: Plasma; test: Antiplatelet aggregation activity in rabbit plasma incubated for 5 mins; type: functional, cell-free; details: Oryctolagus cuniculus
# [19] = system: Plasma (Mus musculus); test: Anticoagulant activity in mouse plasma assessed as prothrombin time
# [20] = Antithrombotic activity in fresh platelet rich plasma; type: functional, cell-based
# [21] = system: Platelet; test: Potency index ratio of IC50 for CCI-17810 to IC50 test compound against antiplatelet activity in platelet (unknown origin); type: functional
# [22] = system: Plasma; test: Antithrombotic activity in mouse plasma assessed as clotting time administered IV
# [23] = system: Plasma; test: Antithrombotic activity in mouse plasma assessed as prothrombin time administered IV
# [24] = system: Erythrocyte; test: Anticoagulant activity in human RBC assessed as decrease in epinephrine induced platelet aggregation by measuring increased clotting time relative to control; type: functional
# [25] = system: Blood; test: Antithrombotic activity in ferric chloride-treated carotid artery thrombosis Sprague-dawley rat blood assessed as clot weight at 50 mg/kg (RVB = 72.50 +/- 2 mg); type: functional
# [26] = system: Blood; test: Antithrombotic activity in photochemically induced arterial thrombosis Cynomolgus monkey blood assessed as decrease in occlusion time (reference value: 119 +/- 17.40 min); type: functional, Macaca fascicularis
# [27] = system: Blood; test: Antithrombotic activity in ferric chloride-treated carotid artery thrombosis Sprague-dawley rat blood assessed as clot weight at 10 mg/kg (RVB = 72.50 +/- 2 mg); type: functional
# [28] = system: Plasma; test: Antithrombotic activity in human plasma assessed as thrombin time; type: functional
# [29] = molecular target: Prothrombin (Homo sapiens, UniProt P00734); test: Inhibition of thrombin in human plasma; type: cell-free
# [30] = species: Rattus norvegicus; test: Antithrombotic activity in arteriovenous bypass thrombo-genesis rat model assessed as quality of thrombosis; type: functional
# Sequence of P2Y purinoceptor 1 (P47900 whole entry): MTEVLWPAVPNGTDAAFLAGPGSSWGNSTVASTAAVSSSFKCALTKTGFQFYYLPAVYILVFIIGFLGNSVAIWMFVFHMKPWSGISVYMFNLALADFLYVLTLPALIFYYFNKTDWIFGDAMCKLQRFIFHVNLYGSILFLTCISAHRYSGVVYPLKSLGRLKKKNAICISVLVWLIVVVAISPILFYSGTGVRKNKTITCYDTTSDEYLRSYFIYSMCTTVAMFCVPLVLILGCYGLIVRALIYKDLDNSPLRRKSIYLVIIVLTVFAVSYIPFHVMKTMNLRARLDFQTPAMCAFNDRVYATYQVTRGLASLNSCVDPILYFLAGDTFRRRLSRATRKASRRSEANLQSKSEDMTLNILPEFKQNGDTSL
# Sequence of Coagulation factor X (Mus musculus, UniProt O88947) (O88947 41-180 limits assumed): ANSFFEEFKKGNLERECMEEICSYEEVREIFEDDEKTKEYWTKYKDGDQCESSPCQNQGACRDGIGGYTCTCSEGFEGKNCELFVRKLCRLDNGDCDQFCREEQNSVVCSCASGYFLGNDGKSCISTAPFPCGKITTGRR
# Sequence of Coagulation factor X (Mus musculus, UniProt O88947) (O88947 232-481 limits assumed): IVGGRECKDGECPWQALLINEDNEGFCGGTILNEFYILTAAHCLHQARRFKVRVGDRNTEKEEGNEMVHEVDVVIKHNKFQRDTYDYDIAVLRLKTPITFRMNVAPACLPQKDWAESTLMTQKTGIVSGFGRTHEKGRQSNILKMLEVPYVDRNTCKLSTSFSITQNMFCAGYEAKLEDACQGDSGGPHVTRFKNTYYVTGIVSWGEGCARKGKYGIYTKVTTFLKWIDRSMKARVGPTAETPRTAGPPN
# Sequence of Coagulation factor X (Homo sapiens, UniProt P00742) (P00742 41-179 limits assumed): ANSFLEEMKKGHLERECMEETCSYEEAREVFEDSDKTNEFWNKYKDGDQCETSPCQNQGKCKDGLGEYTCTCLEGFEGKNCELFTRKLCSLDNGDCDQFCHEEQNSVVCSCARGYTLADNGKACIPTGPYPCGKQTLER
# Sequence of Coagulation factor X (Homo sapiens, UniProt P00742) (P00742 235-488 limits assumed): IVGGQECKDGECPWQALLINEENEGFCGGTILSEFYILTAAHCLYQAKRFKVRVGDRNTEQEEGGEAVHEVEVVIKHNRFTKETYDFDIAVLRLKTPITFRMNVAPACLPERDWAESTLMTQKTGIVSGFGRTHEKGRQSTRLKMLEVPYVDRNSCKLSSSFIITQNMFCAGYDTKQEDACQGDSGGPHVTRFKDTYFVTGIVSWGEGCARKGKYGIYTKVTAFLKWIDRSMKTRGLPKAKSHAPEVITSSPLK
structure (smiles),measurement,setting,value
CNc1nc(Cl)nc2c1ncn2CC(COP(=O)(O)O)COP(=O)(O)O,IC50,[1],0.48 µM
CNc1nc(Cl)nc2c1ncn2CCC(COP(=O)(O)O)COP(=O)(O)O,IC50,[1],0.84 µM
COc1ccc(C(=O)Nc2ccccc2NC(=O)c2ccc(OC)cc2)cc1,Ki,[2],1 µM
COc1ccc(-c2oc3cc(O)cc(O)c3c(=O)c2O)cc1OC,Time,[3],9.9 s
same,Time,[4],5.8 s
same,Time,[5],58.7 s
COc1cc(OC)c2c(=O)c(O)c(-c3ccc(O)c(O)c3)oc2c1,Time,[3],21.8 s
same,Time,[4],6.9 s
same,Time,[5],67.6 s
CNc1ncnc2c1ncn2CC(COP(=O)(O)O)COP(=O)(O)O,IC50,[1],1.09 µM
CNc1ncnc2c1ncn2CCC(COP(=O)(O)O)COP(=O)(O)O,IC50,[1],1.6 µM
COc1cc(O)cc2oc(-c3ccc(O)c(O)c3)c(O)c(=O)c12,Time,[3],19.4 s
same,Time,[4],7.6 s
same,Time,[5],49.2 s
CC(C)[C@](O)(C(=O)OCC1=CCN2CC[C@@H](O)[C@@H]12)[C@H](C)O,IC50,[6],0.49 µM
same,IC50,[7],12.5 µM
CC(=N)N1CCC(Oc2ccc3c(c2)C(=O)NS(=O)(=O)N3Cc2ccc3ccc(C(=N)N)cc3c2)CC1,IC50,[8],0.0021 µM
CCOC(=O)CCN(C(=O)c1ccc2c(c1)nc1n2CCN(CC(=O)OC(C)(C)C)C1Cc1ccc(/C(N)=N/CC(=O)OC(C)(C)C)cc1)c1ccccc1 (stereo not given),IC50,[9],0.11 µM
CC1CC(=O)NN=C1c1ccc(NC(=O)Cn2ccnc2)cc1 (stereo not given),IC50,[10],0.06 µM
CC(=N)N1CCC(Oc2ccc3c(c2)C(=O)NS(=O)(=O)N3CC(=O)Nc2cccc(C(=N)N)c2)CC1,IC50,[8],0.0025 µM
N#Cc1ccc(SC2SC[C@H](O)[C@@H](O)[C@H]2O)cc1 (stereo not given in full),ED50,[11],15 mg/kg
O=C(CC1Nc2c(ccc(Cl)c2[N+](=O)[O-])OC1=O)c1ccc(Br)cc1 (stereo not given),IC50,[12],17 µg/mL
CC(=N)N1CCC(Oc2ccc3c(c2)C(=O)NS(=O)(=O)N3C/C=C/c2cccc(C(=N)N)c2)CC1,IC50,[8],0.0028 µM
COc1cc(/C=C/C(=O)OCc2c(-c3ccccc3)no[n+]2[O-])ccc1OC(=O)c1ccccc1OC(C)=O,inhibition (INH),[13],12.1%
CCCN(CCC)CC(=O)Nc1ccc(C2=NNC(=O)CC2)cc1,Ratio IC50,[14],10
same,IC50,[10],0.03 µM
CCCN(CCC)CC(=O)Nc1ccc(C2=NNC(=O)CC2C)cc1 (stereo not given),IC50,[10],0.085 µM
COc1cc(/C=C/C(=O)OC2COC3C(O[N+](=O)[O-])COC23)ccc1OC(=O)c1ccccc1OC(C)=O (stereo not given),inhibition (INH),[13],28.7%
O=C1CNC(=O)C(Cc2c[nH]cn2)N1 (stereo not given),IC50,[15],66 µM
CC(=O)Oc1ccccc1C(=O)Nc1n[n+](-c2ccc(C)cc2)no1,inhibition (INH),[6],30.7%
O=C(O)C(Cc1ccc2c(c1)OCC(COCC1CCNCC1)O2)NS(=O)(=O)c1ccccc1 (stereo not given),IC50,[16],22.2 µM
same,IC50,[17],41.7 µM
CCCCCCCCN1CCN(c2ccc(C3=NNC(=O)CC3)cc2)CC1,IC50,[7],2.5 µM
CCN1C(=O)COc2cc(NC(=O)c3ccccc3)ccc21,IC50,[18],8.99 µM
COC(=O)c1ccccc1OCCOc1ccc2c(C)cc(=O)oc2c1,Time,[19],8.44 s
Cc1ccc2c(c1)NC(CC(=O)c1ccccc1)C(=O)O2 (stereo not given),IC50,[12],18 µg/mL
CCOC(=O)CCN(C(=O)c1ccc2c(c1)nc1n2CCN(CC(=O)OCC)C1Cc1ccc(/C(N)=N/CC(=O)OCC)cc1)c1ccccc1 (stereo not given),IC50,[9],0.32 µM
N#Cc1ccc(S[C@H]2C[C@@H](O)[C@H](O)CS2)cc1,ED50,[11],7 mg/kg
O=C(CC1CCCCCCCCCNC(=O)OCOC(=O)C(Cc2ccccc2)NC1=O)OCc1ccccc1 (stereo not given),IC50,[20],0.2 µM
CCCN(CCC)CC(=O)N1CCN(c2ccc(C3=NNC(=O)CC3C)cc2)CC1 (stereo not given),IC50,[6],0.008 µM
same,Ratio IC50,[21],60
Cc1cc(=O)oc2cc(OCCOc3ccccc3C(=O)OCCOc3ccc4ccc(=O)oc4c3)ccc12,Time,[19],13.1 s
COc1cc(/C=C/C(=O)OCCOCCO[N+](=O)[O-])ccc1OC(=O)c1ccccc1OC(C)=O,inhibition (INH),[13],16%
CC(=O)Nc1ccc(C(=O)Nc2cc(C(N)=O)ccc2NC(=O)c2ccc(-n3ccccc3=O)cc2)cc1Cl,Time,[5],10.2 s
O=C(Nc1ccc2oc(=O)ccc2c1)c1ccc(-c2noc(CCl)n2)cc1,Time,[22],17.7 s
same,Time,[23],42.3 s
O=C(O)CC1CCCCCCCCCNC(=O)OCOC(=O)C(Cc2ccccc2)NC1=O (stereo not given),IC50,[20],0.4 µM
O=C(OCCOc1ccc2ccc(=O)oc2c1)c1ccccc1OCCOc1ccc2ccc(=O)oc2c1,Time,[19],10.88 s
CC1CC(=O)NN=C1c1ccc(NC(=O)CN2CCCCC2)cc1 (stereo not given),IC50,[10],0.05 µM
COc1cc(C(=O)Nc2cc(C(N)=O)ccc2NC(=O)c2ccc(-n3ccccc3=O)cc2)ccc1O,Time,[5],8.8 s
Cn1c(-c2ccc(Br)s2)nc2cc(-c3nnc(-c4cc(-c5cc(F)cc(F)c5)nc5ccccc45)o3)ccc21,inhibition (INH),[24],93.4%
O=C(COCC(=O)N1CCN(C(c2ccccc2)c2ccccc2)CC1)Nc1ccc(Cl)cc1C(=O)[O-].[Na+],Activity,[25],56.8 mg
same,Time,[26],53.9 min
same,Activity,[27],60.9 mg
CN(C)C(=O)c1ccc(NC(=O)c2ccc(-n3ccccc3=O)cc2)c(NC(=O)c2ccc(Cl)c(Cl)c2)c1,Time,[5],9.5 s
CCN1C(=O)COc2cc(NC(=O)CCCl)ccc21,IC50,[18],8.94 µM
COc1cc(/C=C/C(=O)O)ccc1OCc1cccnc1,IC50,[7],1760 µM
CC1(C)[C@@H](OC(=O)c2ccccc2C(=O)O)CC[C@]2(C)[C@H]3C(=O)C=C4[C@@H]5C[C@@](C)(C(=O)O)CC[C@]5(C)CC[C@@]4(C)[C@]3(C)CC[C@@H]12,Time,[28],118.3 s
same,IC50,[29],114 µM
CC(=O)Oc1ccccc1C(=O)Oc1ccc(/C=C/C(=O)OCCCCO[N+](=O)[O-])cc1,inhibition (INH),[13],43.9%
COc1cc(/C=C/C(=O)OCCCCCCCCCOc2no[n+]([O-])c2S(=O)(=O)c2ccccc2)ccc1OC(=O)c1ccccc1OC(C)=O,inhibition (INH),[13],15.7%
CCOC(=O)CCN(C(=O)c1ccc2c(c1)nc1n2CCN(CC(=O)OCc2ccccc2)C1Cc1ccc(/C(N)=N/CC(=O)OCc2ccccc2)cc1)c1ccccc1 (stereo not given),IC50,[9],0.47 µM
CCCCCOC(=O)C/N=C(\N)c1ccc(CC2c3nc4cc(C(=O)N(CCC(=O)OCC)c5ccccc5)ccc4n3CCN2CC(=O)OCCCCC)cc1 (stereo not given),IC50,[9],0.57 µM
COc1cc(/C=C/C(=O)O)ccc1OCCN(C)C,inhibition (INH),[6],83.1%
COc1cc(/C=C/C(=O)O)ccc1OCCN1CCOCC1,inhibition (INH),[6],91.4%
COc1ccc(-n2nc(C(N)=O)c3c2C(=O)N(c2ccc(N4CCCCC4=O)cc2)CC3)cc1 [APIXABAN],Time,[5],10 s
CC(=O)Oc1ccccc1C(=O)O [ASPIRIN],Activity,[30],10.5 mg
same,inhibition (INH),[13],14.7%
N#Cc1ccc(S[C@@H]2SC[C@@H](O)[C@H](O)[C@H]2O)cc1 [BECIPARCIL],ED50,[11],25 mg/kg
Cn1c(CNc2ccc(C(=N)N)cc2)nc2cc(C(=O)N(CCC(=O)O)c3ccccn3)ccc21 [DABIGATRAN],IC50,[9],0.6 µM
COc1cc(/C=C/C(=O)O)ccc1O [FERULATE],IC50,[7],19600 µM
O=C(O)/C=C/c1ccc(Cn2ccnc2)cc1 [OZAGREL],IC50,[7],2850 µM
COc1cc(O)c2c(=O)c(O)c(-c3ccc(O)c(O)c3)oc2c1 [RHAMNETIN],Time,[3],23 s
same,Time,[4],6.8 s
same,Time,[5],72.6 s
O=C1CCC(c2ccc(Nc3ccncc3)cc2)=NN1 [SENAZODAN],IC50,[10],0.36 µM
CC(=O)CC(c1ccccc1)c1c(O)c2ccccc2oc1=O (stereo not given) [WARFARIN],Time,[22],23.2 s
same,Time,[19],7.97 s
same,Time,[23],42.3 s
CC(=N)N1CCC(Oc2ccc(N(Cc3ccc4ccc(C(=N)N)cc4c3)S(=O)(=O)CC(=O)O)cc2)CC1 [YM-60828],IC50,[8],0.006 µM
